Molecular target: T1, CFTR (Homo sapiens, UniProt P13569, DEL508-508)
T1 construct: Primary CF airway epithelial cells were obtained from the UNC Cystic Fibrosis Tissue Procurement and Cell Culture Core; host or cells: primary CF airway epithelial cells
Assay: Equivalent current assay in Primary CF airway epithelial cells (NAUC)
Type: cell-based
Conditions: 24 h, normalized to VX809 (3 μM) positive control; for Nauc @ 3 μM: 3 μM test compound; for Nauc @ 10 μM: 10 μM test compound
Outline: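 Primary CF airway epithelia differentiated ≥4 weeks at air-liquid interface, treated basolaterally 24 h at 37 °C with test compounds in combination with VX809, 0.1% DMSO vehicle. Equivalent current recorded after 5 μM benzamil, 10 μM forskolin plus 1 μM VX770, then CFTR-172/bumetanide 20 μM; vehicle-subtracted AUC normalized to 3 μM VX809 (NAUC), median of n≥4, sigmoid fit for EC50.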

T1 sequence (P13569 with tags, fused parts or gaps DEL508-508): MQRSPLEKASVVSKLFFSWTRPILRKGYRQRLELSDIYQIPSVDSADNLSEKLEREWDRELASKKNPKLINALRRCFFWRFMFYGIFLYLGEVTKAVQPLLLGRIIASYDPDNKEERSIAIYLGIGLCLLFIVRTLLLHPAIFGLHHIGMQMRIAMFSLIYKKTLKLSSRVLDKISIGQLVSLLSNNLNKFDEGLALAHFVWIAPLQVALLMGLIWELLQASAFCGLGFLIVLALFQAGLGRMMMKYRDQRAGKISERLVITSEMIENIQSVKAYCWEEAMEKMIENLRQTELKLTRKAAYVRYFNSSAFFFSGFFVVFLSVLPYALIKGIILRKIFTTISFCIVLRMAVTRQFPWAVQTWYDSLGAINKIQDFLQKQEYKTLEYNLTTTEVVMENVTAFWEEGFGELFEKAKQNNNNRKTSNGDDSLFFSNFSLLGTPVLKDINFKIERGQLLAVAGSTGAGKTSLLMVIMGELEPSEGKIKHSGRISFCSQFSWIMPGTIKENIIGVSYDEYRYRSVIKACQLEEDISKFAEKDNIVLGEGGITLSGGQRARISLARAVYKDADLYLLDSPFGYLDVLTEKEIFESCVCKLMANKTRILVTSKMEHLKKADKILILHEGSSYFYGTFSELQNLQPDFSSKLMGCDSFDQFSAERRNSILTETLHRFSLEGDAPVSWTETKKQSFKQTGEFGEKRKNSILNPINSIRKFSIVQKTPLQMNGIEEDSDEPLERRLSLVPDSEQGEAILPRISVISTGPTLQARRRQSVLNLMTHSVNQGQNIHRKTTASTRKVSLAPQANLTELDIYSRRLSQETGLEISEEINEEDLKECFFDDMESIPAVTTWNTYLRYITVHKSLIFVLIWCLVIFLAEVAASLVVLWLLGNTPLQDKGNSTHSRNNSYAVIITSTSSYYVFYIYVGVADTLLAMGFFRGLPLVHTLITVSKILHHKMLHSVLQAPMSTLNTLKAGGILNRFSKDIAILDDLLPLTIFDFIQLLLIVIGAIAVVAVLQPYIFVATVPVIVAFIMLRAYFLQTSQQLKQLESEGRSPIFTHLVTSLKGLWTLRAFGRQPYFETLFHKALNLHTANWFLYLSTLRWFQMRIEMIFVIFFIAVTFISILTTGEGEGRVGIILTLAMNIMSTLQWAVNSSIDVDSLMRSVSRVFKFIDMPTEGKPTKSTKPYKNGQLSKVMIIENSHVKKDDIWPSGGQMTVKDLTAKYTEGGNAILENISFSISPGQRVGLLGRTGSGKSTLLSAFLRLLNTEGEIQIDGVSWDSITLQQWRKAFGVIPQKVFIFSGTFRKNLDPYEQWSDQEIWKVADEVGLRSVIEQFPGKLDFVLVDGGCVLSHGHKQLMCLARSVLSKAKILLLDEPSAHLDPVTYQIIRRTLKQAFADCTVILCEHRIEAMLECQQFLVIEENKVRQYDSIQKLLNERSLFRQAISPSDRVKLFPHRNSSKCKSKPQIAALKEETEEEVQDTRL

Row | Structure (SMILES) | Nauc @ 3 μM | Nauc @ 10 μM
1 | Cc1ccc2c(c1)C1(C(=O)N2)C2C(=O)N(c3cc(Cl)cc(Cl)c3)C(=O)C2C2CCCN21 (stereo not shown) [Example 47] | ++ (NAUC “++” refers to an observed NAUC 170-140% of positive control) | ++ (NAUC “++” refers to an observed NAUC 170-140% of positive control)
2 | O=C1C2C3C[C@H](F)CN3C3(C(=O)Nc4c(Cl)cc(Cl)cc43)C2C(=O)N1c1cc(Cl)cc(Cl)c1O (stereo partly shown) [Example 95] | ++ (NAUC “++” refers to an observed NAUC 170-140% of positive control) | + (NAUC “+” refers to an observed NAUC <140% of positive control)
3 | CC(C)C1NC2(C(=O)Nc3c(Cl)cc(Cl)cc32)C2C(=O)N(c3cc(Cl)cc(Cl)c3)C(=O)C12 (stereo not shown) [Example 17] | + (NAUC “+” refers to an observed NAUC <140% of positive control) | ++ (NAUC “++” refers to an observed NAUC 170-140% of positive control)
4 | O=C1C2C3CCCN3C3(C(=O)Nc4c(Cl)cc(Cl)cc43)C2C(=O)N1c1cc(Cl)c(OC(F)F)c(Cl)c1 (stereo not shown) [Example 224] | +++ (NAUC “+++” refers to an observed NAUC >170% of positive control) | +++ (NAUC “+++” refers to an observed NAUC >170% of positive control)
5 | O=C1C2C3CC(F)(F)CN3C3(C(=O)Nc4c(Cl)cc(Cl)cc43)C2C(=O)N1c1cc(Cl)cc(Cl)c1 (single isomer, unassigned) [Example 179] | +++ (NAUC “+++” refers to an observed NAUC >170% of positive control) | +++ (NAUC “+++” refers to an observed NAUC >170% of positive control)
6 | O=C1C2C3C4OC4CN3C3(C(=O)Nc4c(Cl)cc(Cl)cc43)C2C(=O)N1c1cc(Cl)cc(Cl)c1 (stereo not shown) [Example 94] | ++ (NAUC “++” refers to an observed NAUC 170-140% of positive control) | +++ (NAUC “+++” refers to an observed NAUC >170% of positive control)
7 | CC1(C)CC2C3C(=O)N(c4cc(Cl)cc(Cl)c4)C(=O)C3C3(C(=O)Nc4c(Cl)cc(Cl)cc43)N2C1 (single isomer, unassigned) [Example 120] | +++ (NAUC “+++” refers to an observed NAUC >170% of positive control) | + (NAUC “+” refers to an observed NAUC <140% of positive control)
8 | O=C1C2C3C[C@H](Cl)CN3C3(C(=O)Nc4c(Cl)cc(Cl)cc43)C2C(=O)N1c1cc(Cl)cc(Cl)c1 (single isomer, unassigned) [Example 86] | + (NAUC “+” refers to an observed NAUC <140% of positive control) | +++ (NAUC “+++” refers to an observed NAUC >170% of positive control)
9 | O=C1C2C3CCCN3C3(C(=O)Nc4ccc(C(F)(F)F)cc43)C2C(=O)N1c1cc(Cl)cc(Cl)n1 (stereo not shown) [Example 102] | + (NAUC “+” refers to an observed NAUC <140% of positive control) | ++ (NAUC “++” refers to an observed NAUC 170-140% of positive control)
10 | N=C(N)NCCCC1NC2(C(=O)Nc3c(Cl)cc(Cl)cc32)C2C(=O)N(c3cc(Cl)cc(Cl)c3)C(=O)C12 (stereo not shown) [Example 163] | ++ (NAUC “++” refers to an observed NAUC 170-140% of positive control) | + (NAUC “+” refers to an observed NAUC <140% of positive control)
11 | COc1c(Cl)cc(N2C(=O)C3C4CC(C(F)(F)F)CN4C4(C(=O)Nc5c(Cl)cc(Cl)cc54)C3C2=O)cc1Cl (stereo not shown) [Example 213] | ++ (NAUC “++” refers to an observed NAUC 170-140% of positive control) | +++ (NAUC “+++” refers to an observed NAUC >170% of positive control)
12 | O=C1C2C3CCCN3C3(C(=O)Nc4c(Cl)cc(Cl)cc43)C2C(=O)N1c1cccc(C(F)(F)F)n1 (stereo not shown) [Example 251] | +++ (NAUC “+++” refers to an observed NAUC >170% of positive control) | +++ (NAUC “+++” refers to an observed NAUC >170% of positive control)
13 | O=C1C2C3CC(=C(F)F)CN3C3(C(=O)Nc4c(Cl)cc(Cl)cc43)C2C(=O)N1c1cccc(C(F)(F)F)c1 (stereo not shown) [Example 126] | +++ (NAUC “+++” refers to an observed NAUC >170% of positive control) | +++ (NAUC “+++” refers to an observed NAUC >170% of positive control)
14 | C[C@@]1(F)CC2C3C(=O)N(c4cc(Cl)cc(Cl)n4)C(=O)C3C3(C(=O)Nc4c(Cl)cc(Cl)cc43)N2C1 (single isomer, unassigned) [Example 230] | +++ (NAUC “+++” refers to an observed NAUC >170% of positive control) | +++ (NAUC “+++” refers to an observed NAUC >170% of positive control)
15 | COc1c(Cl)cc(N2C(=O)C3C4CCCN4C4(C(=O)Nc5c(Cl)cc(Cl)cc54)C3C2=O)cc1Cl (single isomer, unassigned) [Example 112] | +++ (NAUC “+++” refers to an observed NAUC >170% of positive control) | +++ (NAUC “+++” refers to an observed NAUC >170% of positive control)
16 | COc1cc(Cl)cc(N2C(=O)C3C4C[C@](C)(O)CN4C4(C(=O)Nc5c(Cl)cc(Cl)cc54)C3C2=O)c1 (stereo partly shown) [Example 158] | ++ (NAUC “++” refers to an observed NAUC 170-140% of positive control) | +++ (NAUC “+++” refers to an observed NAUC >170% of positive control)
17 | COc1cc(Cl)cc(N2C(=O)C3C4CC(C(F)F)CN4C4(C(=O)Nc5c(Cl)cc(Cl)cc54)C3C2=O)c1 (stereo not shown) [Example 130] | + (NAUC “+” refers to an observed NAUC <140% of positive control) | ++ (NAUC “++” refers to an observed NAUC 170-140% of positive control)
18 | O=C1C2C3C[C@H](Cl)CN3C3(C(=O)Nc4c(Cl)cc(Cl)cc43)C2C(=O)N1c1cc(Cl)cc(Cl)c1 (single isomer, unassigned) [Example 87] | +++ (NAUC “+++” refers to an observed NAUC >170% of positive control) | +++ (NAUC “+++” refers to an observed NAUC >170% of positive control)
19 | O=C1C2C(Cc3c(Cl)cccc3Cl)NC3(C(=O)Nc4c(Cl)cc(Cl)cc43)C2C(=O)N1c1cc(Cl)cc(Cl)c1 (stereo not shown) [Example 228] | +++ (NAUC “+++” refers to an observed NAUC >170% of positive control) | ++ (NAUC “++” refers to an observed NAUC 170-140% of positive control)
20 | COc1c(Cl)cc(N2C(=O)C3C4CC(OC)(OC)CN4C4(C(=O)Nc5c(Cl)cc(Cl)cc54)C3C2=O)cc1Cl (stereo not shown) [Example 168] | + (NAUC “+” refers to an observed NAUC <140% of positive control) | ++ (NAUC “++” refers to an observed NAUC 170-140% of positive control)
